# According to US9573966B2, “Anti-cancer activity of novel bicyclic heterocycles” (Katholieke Universiteit Leuven, K.U.Leuven R&D, priority 2010, dated 2017):
# Experiments:
# [1] = system: HL-60 cells; assay: Inhibition of HL-60 leukemic cell line proliferation (WST-1); type: cell-based, human; conditions: cytotoxicity on HL-60 cells, two days incubation, WST-1 read-out
# Method: HL-60 cell line, a human promyelocytic leukemia (ATCC; CCL-240) cell line, was grown in RPMI-1640 medium (Lonza, Belgium) supplemented with 10% fetal calf serum (Hyclone, US) and antibiotics. Exponential growing phase cells were seed in flat bottom 96-well microplates (TTP, Switzerland) at 50000 cells per well in 220 μl of medium with compounds (in different concentrations) and incubated for two days at 37° C., 5% CO2. After incubation, 100 μl of supernatant were removed and 10 μl of WST-1 (Roche, Switzerland) were added. After 2 hour incubation at 37° C., 5% CO2, optical densities were measured at 450 nm. Proliferation is calculated with respect of control points (no compound and treatment with Triton X100 to have maximum and minimum proliferation data). The IC50 was determined from a graph with at least four points, each derived from the mean of at least 2 experiments. […] The results are shown in Table 2 for a number of compounds.
# [2] = system: HSB-2 cells; assay: Inhibition of HSB-2 leukemic cell line proliferation (WST-1); type: cell-based, human; conditions: cytotoxicity on HSB-2 cells, two days incubation, WST-1 read-out
# Summary of the method: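 HSB-2 human ALL cells, 50000/well in RPMI-1640 + 10% FCS, exposed to compounds 2 days at 37 °C, then WST-1 2 h, OD 450 nm. Proliferation scaled between untreated (max) and Triton X100 (min) controls; IC50 from ≥4-point curves, each point mean of ≥2 experiments.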
SMILES,"IC50 ([1]; Homo sapiens, 48 h) [µM]","IC50 ([2]; Homo sapiens, HSB2, 48 h) [µM]",IC50 [1] [µM],IC50 [2] [µM]
"Nc1nc(N2CCN(C(=O)COc3ccc(Cl)cc3)CC2)c2nc(-c3ccc(Br)cc3)[nH]c2n1 [Example 391, 1-(4-(2-amino-8-(4-bromophenyl)-9H-purin-6-yl)piperazin-1-yl)-2-(4-chlorophenoxy)ethanone]",3.65,2.14,,
"Cc1cccc(NC(=O)N2CCN(c3nc(N)nc4oc(CCc5ccc(F)cc5)nc34)CC2)c1 [Example 196, 5-amino-2-[2-(4-fluorophenyl)ethyl]-7-(4-m-tolylcarbamoylpiperazin-1-yl)-oxazolo[5,4-d]pyrimidine]",> 10,> 10,,
"Nc1nc(N2CCN(C(=O)COc3ccc(Cl)cc3)CC2)c2nc(C3(c4ccc(Cl)cc4)CC3)sc2n1 [Example 117, 5-amino-7-[4-(4-chlorophenoxyacetyl)piperazin-1-yl]-2-(1-(4-chlorophenyl)cyclopropyl)thiazolo[5,4-d]pyrimidine]",> 10,6.28,,
"Cc1cccc(OCC(=O)N2CCN(c3nc(N)nc4sc(-c5ccco5)nc34)CC2)c1 [Example 210, 1-(4-(5-amino-2-(furan-2-yl)thiazolo[5,4-d]pyrimidin-7-yl)piperazin-1-yl)-2-(m-tolyloxy)ethanone]",0.39,0.48,,
"COc1ccc(OCC(=O)N2CCN(c3nc(N)nc4sc(-c5ccccc5)cc34)CC2)cc1 [Example 369, 1-(4-(2-amino-6-phenylthieno[2,3-d]pyrimidin-4-yl)piperazin-1-yl)-2-(4-methoxyphenoxy)ethanone]",6.05,5.87,,
"Cc1cccc(NC(=O)N2CCCN(c3nc(N)nc4[nH]c(-c5ccc(F)cc5)nc34)CC2)c1 [Example 422, 4-(2-amino-8-(4-fluorophenyl)-9H-purin-6-yl)-N-m-tolyl-1,4-diazepane-1-carboxamide]",> 10,> 10,,
"CCCc1nc2c(N3CCN(C(=O)COc4ccc(Cl)cc4)CC3)nc(N)nc2[nH]1 [Example 397, 1-(4-(2-amino-8-propyl-9H-purin-6-yl)piperazin-1-yl)-2-(4-chlorophenoxy)ethanone]",1.26,4.51,,
"Nc1nc(N2CCN(C(=O)COc3ccc(Cl)cc3)CC2)c2cc(-c3ccccc3)sc2n1 [Example 329, 1-(4-(2-amino-6-phenylthieno[2,3-d]pyrimidin-4-yl)piperazin-1-yl)-2-(4-chlorophenoxy)ethanone]",> 10,13.7,,
"Cc1cccc(OCC(=O)N2CCN(c3nc(N)nc4sc(-c5ccc(F)cc5)nc34)CC2)c1 [Example 211, 1-(4-(5-amino-2-(4-fluorophenyl)thiazolo[5,4-d]pyrimidin-7-yl)piperazin-1-yl)-2-(m-tolyloxy)ethanone]",0.69,0.47,,
"Nc1nc(N2CCN(c3ccc(Cl)cc3)CC2)c2nc(-c3ccc(F)cc3)[nH]c2n1 [Example 414, 6-(4-(4-chlorophenyl)piperazin-1-yl)-8-(4-fluorophenyl)-9H-purin-2-amine]",> 10,> 10,,
"Nc1nc(N2CCN(C(=O)COc3cccc([N+](=O)[O-])c3)CC2)c2nc(-c3ccc(F)cc3)oc2n1 [Example 193, 5-amino-2-(4-fluorophenyl)-7-(4-[2-(3-nitrophenoxy)acetyl]-piperazin-1-yl)-oxazolo[5,4-d]pyrimidine]",> 10,> 10,,
"Nc1nc(N2CCN(C(=O)COc3ccccc3)CC2)c2cc(-c3ccccc3)sc2n1 [Example 332, 1-(4-(2-amino-6-phenylthieno[2,3d]pyrimidin-4-yl)piperazin-1-yl)-2-phenoxyethanone]",,,> 10,5.5
"Nc1nc(N2CCN(C(=O)COc3ccc(Cl)cc3)CC2)c2nc(CCc3cccs3)sc2n1 [Example 154, 5-amino-2-(2-thiophen-2-ylethyl)-7-(4-[2-(4-chloro-phenoxy)acetyl]piperazin-1-yl)thiazolo[5,4-d]pyrimidine]",6.45,4.04,,
"COc1ccc(OCC(=O)N2CCN(c3nc(N)nc4sc(-c5ccc(Cl)cc5)nc34)CC2)cc1 [Example 270, 1-(4-(5-amino-2-(4-chlorophenyl)thiazolo[5,4-d]pyrimidin-7-yl)piperazin-1-yl)-2-(4-methoxyphenoxy)ethanone]",0.45,0.18,,
"Nc1nc(N2CCN(C(=O)COc3ccc(Cl)cc3)CC2)c2nc(-c3ccc(Cl)cc3)[nH]c2n1 [Example 392, 1-(4-(2-amino-8-(4-chlorophenyl)-9H-purin-6-yl)piperazin-1-yl)-2-(4-chlorophenoxy)ethanone]",3.14,2.23,,
"Nc1nc(N2CC[C@@H](NC(=O)c3ccc(Cl)cc3)C2)c2cc(-c3ccc(F)cc3)sc2n1 [Example 341, (R)—N-(1-(2-amino-6-(4-fluorophenyl)thieno[2,3-d]pyrimidin-4-yl)pyrrolidin-3-yl)-4-chlorobenzamide]",> 10,> 10,,
"Nc1nc(N2CCN(C(=O)COc3ccc(Cl)cc3)CC2)c2nc(-c3ccc(Cl)c(Cl)c3)sc2n1 [Example 116, 5-amino-7-[4-(4-chlorophenoxyacetyl)piperazin-1-yl]-2-(3,4-dichlorophenyl)thiazolo[5,4-d]pyrimidine]",8.59,6.01,,
"Nc1nc(N2CCN(C(=O)COc3ccc(Cl)cc3)CC2)c2cc(-c3ccc(F)cc3)sc2n1 [Example 326, 1-(4-(2-amino-6-(4-fluorophenyl)thieno[2,3-d]pyrimidin-4-yl)piperazin-1-yl)-2-(4-chlorophenoxy)ethanone]",> 10,8.97,,
"Nc1nc(N2CCN(C(=O)COc3ccc(Cl)cc3)CC2)c2nc(SC3CCCC3)[nH]c2n1 [Example 429, 1-(4-(2-amino-8-(cyclopentylthio)-9H-purin-6-yl)piperazin-1-yl)-2-(4-chlorophenoxy)ethanone]",> 10,7.87,,
"CCCCCc1nc2c(N3CCN(C(=O)COc4ccc(Cl)cc4)CC3)nc(N)nc2o1 [Example 188, 5-amino-7-[4-(4-chlorophenoxyacetyl)piperazin-1-yl]-2-pentyloxazolo[5,4-d]pyrimidine]",> 10,> 10,,
"Cc1nc2c(N3CCN(C(=O)COc4ccc(Cl)cc4)CC3)nc(N)nc2[nH]1 [Example 400, 1-(4-(2-amino-8-methyl-9H-purin-6-yl)piperazin-1-yl)-2-(4-chlorophenoxy)ethanone]",2.98,2.06,,
"Nc1nc(N2CCN(C(=O)COc3ccccc3)CC2)c2nc(CCc3ccc(F)cc3)sc2n1 [Example 134, 5-amino-2-[2-(4-fluorophenyl)ethyl]-7-(4-[2-phenoxyacetyl]piperazin-1-yl)-thiazolo[5,4-d]pyrimidine]",> 10,> 10,,
"Nc1nc(N2CCN(C(=O)Nc3ccc(Cl)cc3)CC2)c2cc(-c3ccccc3)sc2n1 [Example 331, 4-(2-amino-6-phenylthieno[2,3-d]pyrimidin-4-yl)-N-(4-chlorophenyl)piperazine-1-carboxamide]",> 10,> 10,,
"Nc1nc(N2CCN(C(=O)COc3ccc(Cl)cc3)CC2)c2ccsc2n1 [Example 351, 1-(4-(2-aminothieno[2,3-d]pyrimidin-4-yl)piperazin-1-yl)-2-(4-chlorophenoxy)ethanone]",5.08,1.7,,
"CCCSc1nc2c(N3CCN(C(=O)COc4ccc(Cl)cc4)CC3)nc(N)nc2[nH]1 [Example 425, 1-(4-(2-amino-8-(propylthio)-9H-purin-6-yl)piperazin-1-yl)-2-(4-chlorophenoxy)ethanone]",8.83,4.57,,
"Nc1nc(N2CCN(C(=O)COc3ccc(Cl)cc3)CC2)c2nc(C3CC3)sc2n1 [Example 119, 5-amino-2-cyclopropyl-7-[4-(4-chlorophenoxyacetyl)piperazin-1-yl]-thiazolo[5,4-d]pyrimidine]",3.81,3.03,,
"Nc1nc(N2CCN(C(=O)COc3ccc(Br)cc3)CC2)c2nc(-c3ccc(F)cc3)sc2n1 [Example 128, 5-amino-2-(4-fluorophenyl)-7-(4-[2-(4-bromophenoxy)acetyl]-piperazin-1-yl)-thiazolo[5,4-d]pyrimidine]",6.47,,,5.62
"Nc1nc(N2CCCN(C(=O)COc3ccc(Cl)cc3)CC2)c2nc(-c3ccc(F)cc3)[nH]c2n1 [Example 421, 1-(4-(2-amino-8-(4-fluorophenyl)-9H-purin-6-yl)-1,4-diazepan-1-yl)-2-(4-chlorophenoxy)ethanone]",> 10,> 10,,
"Cc1cccc(NC(=O)N2CCN(c3nc(N)nc4sc(-c5ccccc5)cc34)CC2)c1 [Example 330, 4-(2-amino-6-phenylthieno[2,3-d]pyrimidin-4-yl)-N-m-tolylpiperazine-1-carboxamide]",> 10,7.61,,
"Cn1c(-c2ccc(F)cc2)nc2c(N3CCN(C(=O)COc4ccc(Cl)cc4)CC3)nc(N)nc21 [Example 430, 1-(4-(2-amino-8-(4-fluorophenyl)-9-methyl-9H-purin-6-yl)piperazin-1-yl)-2-(4-chlorophenoxy)ethanone]",0.99,3.5,,
